The numbers were not newly measured in paper PMC4457351 (Journal of Visualized Experiments : JoVE, 2014), which cites them from elsewhere.

For this series the following is noted: read-out: Kd(calcium).

Fluo-4: the dissociation constant Kd was ~345 nM.
